One test relates to TNFα. The test can be described thus: Cot Monocyte TNFα Cell Based Assay.
The target of the next test is Human Cot (Homo sapiens (Human), UniProt P41279). As to the kind of experiment: High Throughput Cot Biochemical Assay. To be noted: Cot HTRF (TR-FRET) biochemical assay. On the technique in general: TR-FRET usually uses a lanthanide donor and a delayed reading to cut background.
Setting [1] is: Homo sapiens, Monocyte, read-out: EC50 TNF, LPS-stimulated human monocytes, TNFα.

Where two headings read alike, the source gives them in different places.

Human Cot, sequence (P41279 30-397): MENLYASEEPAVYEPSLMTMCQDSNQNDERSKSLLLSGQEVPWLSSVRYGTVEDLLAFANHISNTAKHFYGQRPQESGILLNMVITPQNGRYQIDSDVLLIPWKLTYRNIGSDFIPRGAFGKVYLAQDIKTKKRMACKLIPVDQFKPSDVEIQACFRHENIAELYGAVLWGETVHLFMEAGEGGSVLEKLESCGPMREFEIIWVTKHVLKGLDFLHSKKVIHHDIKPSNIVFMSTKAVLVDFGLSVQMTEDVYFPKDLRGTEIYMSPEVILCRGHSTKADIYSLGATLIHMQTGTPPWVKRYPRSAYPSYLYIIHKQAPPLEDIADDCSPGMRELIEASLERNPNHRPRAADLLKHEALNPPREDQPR

On to `CC(C)(C)CNc1c(C#N)cnc2c(F)cc(N[C@H](c3cn(C4(C(N)=O)CCC4)nn3)c3cccc4ncsc34)cc12` [Example 481, (S)-1-(4-(benzo[d]thiazol-7-yl((3-cyano-8-fluoro-4-(neopentylamino)quinolin-6-yl)-amino)methyl)-1H-1,2,3-triazol-1-yl)cyclobutane-1-carboxamide], for which, in the test with TNFα (setting [1]), the EC50 turned out to be 0.391 µM. Also, on Human Cot (IC50 HTRF), the midpoint of inhibition, the IC50, lay at 0.006 µM.
The matching figures for `Cc1nc(F)ccc1[C@H](Nc1cc(Cl)c2ncc(C#N)c(NCC(C)(C)C)c2c1)c1cn(C2(CO)CC2)nn1` [Example 482, (S)-8-chloro-6-(((6-fluoro-2-methylpyridin-3-yl)(1-(1-(hydroxymethyl)cyclopropyl)-1H-1,2,3-triazol-4-yl)methyl)amino)-4-(neopentylamino)quinoline-3-carbonitrile]: 0.086 µM and 0.003 µM.
Consider `Cn1cnc2cccc([C@H](Nc3cc(Cl)c4ncc(C#N)c(NCC(C)(C)C)c4c3)c3cn(C4(C(F)(F)F)CC4)nn3)c21` [Example 483, (S)-8-chloro-6-(((1-methyl-1H-benzo[d]imidazol-7-yl)(1-(1-(trifluoromethyl)cyclopropyl)-1H-1,2,3-triazol-4-yl)methyl)amino)-4-(neopentylamino)quinoline-3-carbonitrile], for which the EC50 in the test with TNFα (setting [1]) came to 0.108 µM. For the same compound, the IC50 against Human Cot (IC50 HTRF) stood at 0.007 µM.
With `Cn1cnc2cccc([C@H](Nc3cc(C#N)c4ncc(C#N)c(NCC(C)(C)C)c4c3)c3cn(C4(C(F)(F)F)CC4)nn3)c21` [Example 484, (S)-6-(((1-methyl-1H-benzo[d]imidazol-7-yl)(1-(1-(trifluoromethyl)cyclopropyl)-1H-1,2,3-triazol-4-yl)methyl)amino)-4-(neopentylamino)quinoline-3,8-dicarbonitrile], in the test on TNFα (setting [1]), the EC50 was found to be 0.073 µM. For the same compound, the IC50 on Human Cot (IC50 HTRF) came out at 0.003 µM.
With `Cc1nc(F)ccc1[C@H](Nc1cc(F)c2ncc(C#N)c(NCC(C)(C)C)c2c1)c1cn(C2(C(N)=O)CC2)nn1` [Example 486, (S)-1-(4-(((3-cyano-8-fluoro-4-(neopentyl-amino)quinolin-6-yl)amino)(6-fluoro-2-methylpyridin-3-yl)methyl)-1H-1,2,3-triazol-1-yl)cyclopropane-1-carboxamide], the EC50 in the test on TNFα (setting [1]) was 0.991 µM. At Human Cot (IC50 HTRF), this compound registered an IC50 of 0.003 µM.
As to `Cc1nc(F)ccc1[C@H](Nc1cc(F)c2ncc(C#N)c(NCC(C)(C)C)c2c1)c1cn(C2(C(N)=O)CCC2)nn1` [Example 487, (S)-1-(4-(((3-cyano-8-fluoro-4-(neopentyl-amino)quinolin-6-yl)amino)(6-fluoro-2-methylpyridin-3-yl)methyl)-1H-1,2,3-triazol-1-yl)cyclobutane-1-carboxamide], the EC50 in the test with TNFα (setting [1]) stood at 0.245 µM. Further, at Human Cot (IC50 HTRF), the IC50 was 0.001 µM.
The matching figures for `Cc1nc(F)ccc1[C@H](Nc1cc(F)c2ncc(C#N)c(NCC(C)(C)C)c2c1)c1cn(C2(C)CC2)nn1` [Example 488, (S)-8-fluoro-6-(((6-fluoro-2-methylpyridin-3-yl)(1-(1-methylcyclopropyl)-1H-1,2,3-triazol-4-yl)methyl)amino)-4-(neopentyl-amino)quinoline-3-carbonitrile]: 0.079 µM and 0.003 µM.
On the same counts, the results for `Cc1nc(F)ccc1[C@H](Nc1cc(C#N)c2ncc(C#N)c(NCC(C)(C)C)c2c1)c1cn(C2(C#N)CC2)nn1` [Example 489, (S)-6-(((1-(1-cyanocyclopropyl)-1H-1,2,3-triazol-4-yl)(6-fluoro-2-methylpyridin-3-yl)methyl)amino)-4-(neopentylamino)-quinoline-3,8-dicarbonitrile] are 0.129 µM and 0.002 µM.
On the same counts, the results for `Cc1nc(F)ccc1[C@H](Nc1cc(C#N)c2ncc(C#N)c(NCC(C)(C)C)c2c1)c1cn(C2(C(N)=O)CC2)nn1` [Example 490, (S)-1-(4-(((3,8-dicyano-4-(neopentylamino)-quinolin-6-yl)amino)(6-fluoro-2-methylpyridin-3-yl)methyl)-1H-1,2,3-triazol-1-yl)cyclopropane-1-carboxamide] are 1 µM and 0.001 µM.
With `Cc1nc(F)ccc1[C@H](Nc1cc(C#N)c2ncc(C#N)c(NCC(C)(C)C)c2c1)c1cn(C2(C#N)CCC2)nn1` [Example 491, (S)-6-(((1-(1-cyanocyclobutyl)-1H-1,2,3-triazol-4-yl)(6-fluoro-2-methylpyridin-3-yl)methyl)amino)-4-(neopentylamino)-quinoline-3,8-dicarbonitrile], the EC50 in the test with TNFα (setting [1]) was found to be 0.04 µM. Besides, the IC50 against Human Cot (IC50 HTRF) was 0.003 µM.
The matching figures for `Cc1nc(F)ccc1[C@H](Nc1cc(C#N)c2ncc(C#N)c(NCC(C)(C)C)c2c1)c1cn(C2(C)CC2)nn1` [Example 492, (S)-6-(((6-fluoro-2-methylpyridin-3-yl)(1-(1-methylcyclopropyl)-1H-1,2,3-triazol-4-yl)methyl)amino)-4-(neopentylamino)-quinoline-3,8-dicarbonitrile]: 0.021 µM and 0.002 µM.
On the same counts, the results for `CC(C)(C)CNc1c(C#N)cnc2c(Cl)cc(N[C@H](c3cn(C4(C(F)(F)F)CC4)nn3)c3cnn4ncccc34)cc12` [Example 493, (S)-8-chloro-4-(neopentylamino)-6-((pyrazolo[1,5-b]pyridazin-3-yl(1-(1-(trifluoromethyl)cyclopropyl)-1H-1,2,3-triazol-4-yl)methyl)amino)quinoline-3-carbonitrile] are 1 µM and 0.031 µM.
On the same counts, the results for `Cc1nc(F)ccc1[C@H](Nc1cc(C#N)c2ncc(C#N)c(NCC(C)(C)C)c2c1)c1cn(C2(C(N)=O)CCC2)nn1` [Example 494, (S)-1-(4-(((3,8-dicyano-4-(neopentyl-amino)quinolin-6-yl)amino)(6-fluoro-2-methylpyridin-3-yl)methyl)-1H-1,2,3-triazol-1-yl)cyclobutane-1-carboxamide] are 0.444 µM and 0.001 µM.
In the case of `Cc1nc(F)ccc1[C@H](Nc1cc(Cl)c2ncc(C#N)c(NCC(C)(C)C)c2c1)c1cn(C2(CF)CC2)nn1` [Example 495, (S)-8-chloro-6-(((6-fluoro-2-methylpyridin-3-yl)(1-(1-(fluoromethyl)cyclopropyl)-1H-1,2,3-triazol-4-yl)methyl)amino)-4-(neopentylamino)quinoline-3-carbonitrile], the EC50 in the test on TNFα (setting [1]) was found to be 0.05 µM. The compound further registered an IC50 against Human Cot (IC50 HTRF) of 0.003 µM.
For `Cn1ncc2c([C@H](Nc3cc(Cl)c4ncc(C#N)c(NCC(C)(C)C)c4c3)c3cn(C4(C(F)F)CC4)nn3)cccc21` [Example 496, (S)-8-chloro-6-(((1-(1-(difluoromethyl)-cyclopropyl)-1H-1,2,3-triazol-4-yl)(1-methyl-1H-indazol-4-yl)methyl)amino)-4-(neopentylamino)quinoline-3-carbonitrile], the EC50 in the test on TNFα (setting [1]) was found to be 0.467 µM. The same compound yielded an IC50 against Human Cot (IC50 HTRF) of 0.006 µM.
For `Cn1cc2c([C@H](Nc3cc(Cl)c4ncc(C#N)c(NCC(C)(C)C)c4c3)c3cn(C4(C(F)F)CC4)nn3)cccc2n1` [Example 497, (S)-8-chloro-6-(((1-(1-(difluoromethyl)-cyclopropyl)-1H-1,2,3-triazol-4-yl)(2-methyl-2H-indazol-4-yl)methyl)amino)-4-(neopentylamino)quinoline-3-carbonitrile], the EC50 with TNFα (setting [1]) amounted to 0.379 µM. This compound also displayed an IC50 at Human Cot (IC50 HTRF) of 0.006 µM.
The matching figures for `CN1Cc2cccc([C@H](Nc3cc(Cl)c4ncc(C#N)c(NCC(C)(C)C)c4c3)c3cn(C4(C(F)F)CC4)nn3)c2C1=O` [Example 498, (S)-8-chloro-6-(((1-(1-(difluoromethyl)-cyclopropyl)-1H-1,2,3-triazol-4-yl)(2-methyl-3-oxoisoindolin-4-yl)methyl)-amino)-4-(neopentylamino)quinoline-3-carbonitrile]: 0.689 µM and 0.019 µM.
For the compound `CC(C)(C)CNc1c(C#N)cnc2c(Cl)cc(N[C@H](c3cn(C4(C(F)F)CC4)nn3)c3cccc4[nH]ncc34)cc12` [Example 500, (S)-8-chloro-6-(((1-(1-(difluoromethyl- )cyclopropyl)-1H-1,2,3-triazol-4-yl)(1H-indazol-4-yl)methyl)amino)-4-(neopentylamino)quinoline-3-carbonitrile], the EC50 with TNFα (read-out: EC50 TNF, LPS-stimulated human monocytes, TNFα) was found to be 0.321 µM. The IC50 on Human Cot (read-out: IC50 HTRF) came out at 0.008 µM.
`[2H]C([2H])(Nc1c(C#N)cnc2c(Cl)cc(N[C@H](c3cn(C4(C(F)F)CC4)nn3)c3ccc(F)nc3C)cc12)C(C)(C)C` [Example 501, (S)-8-chloro-6-(((1-(1-(difluoromethyl)-cyclopropyl)-1H-1,2,3-triazol-4-yl)(6-fluoro-2-methylpyridin-3-yl)methyl)amino)-4-((2,2-dimethylpropyl-1,1-d2)amino)-quinoline-3-carbonitrile]: the EC50 in the test with TNFα (setting [1]) was 0.055 µM. Moreover, half-maximal inhibition against Human Cot (IC50 HTRF) (IC50) was put at 0.003 µM.
For `Cc1nc(F)ccc1[C@H](Nc1cc(Cl)c2ncc(C#N)c(NCC3(C)CCC3)c2c1)c1cn(C2(C(F)F)CC2)nn1` [Example 502, (S)-8-chloro-6-(((1-(1-(difluoromethyl)-cyclopropyl)-1H-1,2,3-triazol-4-yl)(6-fluoro-2-methylpyridin-3-yl)methyl)-amino)-4-(((1-methylcyclobutyl)methyl)-amino) quinoline-3-carbonitrile], the EC50 in the test on TNFα (setting [1]) worked out at 0.206 µM. The compound also had an IC50 against Human Cot (IC50 HTRF) of 0.006 µM.
The matching figures for `Cc1nc(F)ccc1[C@H](Nc1cc(C#N)c2ncc(C#N)c(NCC(C)(C)C)c2c1)c1cn(C2(CF)CC2)nn1` [Example 503, (S)-6-(((6-fluoro-2-methylpyridin-3-yl)(1-(1-(fluoromethyl)cyclopropyl)-1H-1,2,3-triazol-4-yl)methyl)amino)-4-(neopentylamino)quinoline-3,8-dicarbonitrile]: 0.045 µM and 0.002 µM.
With `CC(C)(C)CNc1c(C#N)cnc2c(Cl)cc(N[C@H](c3cn(C4CC4)nn3)c3cccc4ccncc34)cc12` [Example 504, (S)-8-chloro-6-(((1-cyclopropyl-1H-1,2,3-triazol-4-yl)(isoquinolin-8-yl)methyl)amino)-4-(neopentylamino)quinoline-3-carbonitrile], the EC50 in the test with TNFα (setting [1]) stood at 0.038 µM. Moreover, the IC50 against Human Cot (IC50 HTRF) came to 0.001 µM.

By EC50 is commonly meant the concentration needed to bring the measured effect to its halfway point. Usually IC50 stands for the concentration at which inhibition is half-maximal.

These data come from patent publication US11066414B2, “Cot modulators and methods of use thereof” (Gilead Sciences, Inc., priority 2015, dated 2021).
